Patent publication US6133302A, “5-(3-Phenyl-3-oxo-propyl)-1H-tetrazole derivatives” (Pharmacia & Upjohn SpA, priority 1997, dated 2000)

Target: T1, kynurenine-3-hydroxylase (Rattus norvegicus, UniProt O88867)
T1 construct: Rat liver mitochondrial extract was used as enzymatic preparation for this assay; from tissue; host or cells: rat liver mitochondrial extract
Test: KYN-3-OH inhibition; kynurenine 3-hydroxylase assay based on enzymatic synthesis of tritiated water in rat liver mitochondrial extract
Type: biochemical
Settings: 37° C., 30 min, pH 8.1, 0.025 mM L-Kynurenine, 0.8 mM NADPH
Procedure: The assay for kynurenine 3-hydroxylase is based on the enzymatic synthesis of tritiated water during the hydroxylation reaction. Radiolabeled water was quantified following selective adsorption of the isotopic substrate and its metabolite with activated charcoal.
Rat liver mitochondrial extract was used as enzymatic preparation for this assay.
The assay for kynurenine 3-hydroxylase activity was carried out at 37° C. for a time of 30 min. The reaction mixture having a total volume of […] was constituted of 44 mg of suspended extract, 100 mM Tris/Cl^- buffer pH 8.1, 10 mM EDTA, 100 mM KCl, 0.8 mM NADPH, 0.025 mM L-Kynurenine, 0.5 mCi L-(3,5-^3 H)Kynurenine (10 Ci/mmol) and […] of different concentration of inhibitor solutions. After the incubation, the reaction was terminated by adding 1 ml of 7.5% (W/v) activated charcoal, vortexed and centrifuged for 7 min.
A […] aliquot of supernatant was counted by scintillation spectroscopy in 5 ml of liquid scintillation.

T1 sequence (O88867 whole entry): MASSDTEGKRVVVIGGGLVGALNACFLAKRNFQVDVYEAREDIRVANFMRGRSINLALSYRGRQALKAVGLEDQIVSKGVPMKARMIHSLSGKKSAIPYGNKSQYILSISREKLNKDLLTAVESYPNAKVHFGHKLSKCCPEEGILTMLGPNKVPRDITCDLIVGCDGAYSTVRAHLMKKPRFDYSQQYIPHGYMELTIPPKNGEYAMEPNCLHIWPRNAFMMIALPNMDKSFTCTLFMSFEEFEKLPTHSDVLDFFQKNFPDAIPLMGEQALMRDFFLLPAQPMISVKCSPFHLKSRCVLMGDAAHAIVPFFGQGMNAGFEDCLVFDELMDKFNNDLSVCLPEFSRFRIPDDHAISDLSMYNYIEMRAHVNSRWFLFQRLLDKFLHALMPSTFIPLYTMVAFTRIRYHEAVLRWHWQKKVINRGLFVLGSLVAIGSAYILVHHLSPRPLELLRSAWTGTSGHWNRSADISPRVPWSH

Molecule `O=C(CC(Cc1ccccc1)c1nnn[nH]1)c1ccc(Cl)c(Cl)c1` (stereo not shown) [PNU-168778, 5-[1-benzyl-3-(3,4-dichlorophenyl)-3-oxo-propyl]-1H-tetrazole] has an IC50 of 2320 nM.
